SMILES strings stand for the structures.

2 compounds from patent US20210145965A1, “METHOD OF USING CHECKPOINT KINASE INHIBITOR THERAPY TO MODULATE ANTI-TUMORAL RESPONSE AGAINST CANCER AND SENSITIZE GLIOMAS TO IMMUNOTHERAPY” (NORTHWESTERN UNIVERSITY, priority 2019, published 2021) can be followed below.

The test system of test [1] is GL261 cells. Description: Expression of MHC-I and PDL1 in GL261 cells. In kind it is cell-based, mouse. To be noted: 8 nM, 3 cycles (48 h/cycle), compared to TMZ or untreated.
Test [2] has as its system GL261 cells. Description: Percent viability of GL261 cells treated with TMZ or iCHEK1/2. In kind it is cell-based, mouse.
In test [3] the test system is GL261 intracranial gliomas. Description: PD1+ T cells in brain and spleen of GL261 intracranial tumor bearing mice by flow cytometry. In kind it is in vivo, C57BL/6 mice. To be noted: 10 mg/kg i.p. on 7th and 9th day, sacrificed on 13th day. On the technique in general: A flow cytometer gives signals particle by particle.
The test system of test [4] is GL261 cells. The test is described as follows: Western blot of DNA damage in GL261 cells. In kind it is cell-based, mouse. To be noted: 8 nM, 48 h of treatment, compared to TMZ or untreated GL261 cells. (Immunoblotting shows a protein as a band on a membrane.)

On to `COc1cccc(OCCCN)c1-c1cc(Nc2cnc(C#N)cn2)n[nH]1` [iCHEK1/2, Prexasertib], for which, in test [1], the “expression of MHC-I (both MHC class and PDL1)” value was “increased expression of MHC-I”. In addition, the “concentration at which viability of the GL261 cells started to be affected” value in test [2] was “less than 0.08 nM”. In addition, the “activated T-cells pool in the peripheral compartment (spleen)” value in test [3] was “no significant difference”. For the same compound, in test [3] (compared to TMZ or vehicle), the “percentage of PD1+ T cells in the brain” value is reported as “decrease in the percentage of PD1+ T cells”. The “DNA damage signal (western blot)” value in test [4] was “intense signal of DNA damage”.

As to `Cn1nnc2c(C(N)=O)ncn2c1=O` [TMZ, temozolomide], the “concentration leading to a decrease in viability of glioma cells” value in test [2] (treatment for 72 h) was determined as 500 µM.
